Laboratory results published in patent US8076375B2 (priority 2005, dated 2011).
“And” between values parts separate entries of the source, which are not always exact repeats. Equal values may be shown once. “Also recorded” adds a separate entry of the source. Read-outs that look alike come from different tables or passages of the source.

Legend:
[1] = mouse, in vivo, cited from earlier work
[2] = target: vaccinia virus B1 kinase (GST-B1) (Vaccinia virus, UniProt P20505); experiment: biochemical; assay type: biochemical; details: for inhibition at 10 µM: read-out: Inhibition of GST-B1 (of the control value); for remaining activity at 10 µM: read-out: Percent activity remaining at 10 μM, B1
wild-type vaccinia virus = experiment: microbe, parasite or virus in culture; assay type: cell-based; details: for inhibition at 100 µM: Orthopoxvirus vaccinia, HeLa
[3] = system: Lck (activated F505 form); assay type: biochemical; details: for Effect on Lck activity (in words): 10 μM
[4] = system: ts2 and ts25 vaccinia virus mutants; assay type: cell-based
[5] = system: vesicular stomatitis virus (VSV); assay type: cell-based

Compound	Toxic effects in mammals [1]	IC50 [2]	inhibition at 10 µM [2]	remaining activity at 10 µM [2]	Effect on virus growth in HeLa cell culture (in words) (wild-type vaccinia virus)	Percent Lck activity remaining [3]	Effect on Lck activity (in words) [3]	Effect on growth of wild-type vaccinia virus (in words) (wild-type vaccinia virus)	further results
O=C(O)C1CCCCC1c1c2ccc(=O)c(O)c-2oc2c(O)c(O)ccc12 (stereo not drawn) [Compound 119910-U, 2-(4,5,6-trihydroxy-3-oxo-xanthen-9-yl)cyclohexane-1-carboxylic acid]	no toxic effects were observed	3.5 µM	≥ 87%	0%	no apparent effect	59%	minimally inhibited		
O=S(=O)(O)c1ccc(NN(c2c(O)ccc3ccccc23)S(=O)(=O)O)cc1 [Compound 9600-Q, 4-[N′-(2-hydroxynaphthalen-1-yl)-N′-sulfo-hydrazino]benzenesulfonic acid]				93 ± 2%	no apparent effect	53 ± 18%	minimally inhibited		Effect on B1 kinase activity in vitro (in words) [2]: inhibiting B1 almost not at all
Nc1nc(N)c(/N=N/c2ccc(C(=O)O)c(O)c2)c(N)n1 [Compound 117285-R, 2-hydroxy-4-(2,4,6-triaminopyrimidin-5-yl)diazenyl-benzoic acid]		1 µM	≥ 87%	4 ± 2%	no apparent effect	76 ± 25%			
O=C(O)CCc1c2ccc(=O)c(O)c-2oc2c(O)c(O)ccc12 [Compound 119915-Z, 3-(4,5,6-trihydroxy-3-oxo-xanthen-9-yl)propanoic acid]	no toxic effects were observed	3 µM	≥ 87%	1%	no apparent effect	78%			
CC1C2C=CC1C(c1c3ccc(=O)c(O)c-3oc3c(O)c(O)ccc13)C2C(=O)O (stereo not drawn) [Compound 119913-X, 7-methyl-6-(4,5,6,-trihydroxy-3-oxo-xanthen-9-yl)-bicyclo[2.2.1]hetp-2-ene-5-carboxylic acid]	no toxic effects were observed	2.5 µM	≥ 87%	1%		56%	minimally inhibited	inhibited the growth	Effect on growth of ts2 and ts25 mutant viruses (in words) [4]: reproducibly inhibited the growth
O=C(O)C=Cc1ccc[c]([Sb](=[O])([OH])[OH])c1 [Compound 13778-J, 3-(3-stibonophenyl)prop-2-enoic acid]						79 ± 9%		inhibited the growth	Effect on B1 kinase activity in vitro (in words) [2]: inhibiting B1 almost not at all; also recorded: stimulated B1 in vitro
2-methylnaphthalene-bis(hexachlorocyclopentadiene) adduct [reference compound]									Effect on growth of ts2 and ts25 vaccinia virus, FIG. 1 (in words) [4]: did not inhibit; Effect on growth of ts2 or ts25 vaccinia virus (in words) [4]: no effect
O=C1c2ccccc2C(=O)c2c(NC3CCCCC3)ccc(Nc3ccc(S(=O)(=O)O)cc3)c21 [Compound 128437-O, 4-(4-cyclohexylamino-9,10-dioxo-anthracen-1-yl)aminobenzenesulfonic acid]				47%		88%		inhibited the growth	
CN[C@@H]1C[C@H]2O[C@@](C)([C@@H]1OC)n1c3ccccc3c3c4c(c5c6ccccc6n2c5c31)C(=O)NC4 [staurosporine, reference compound]									Effect on B1 kinase activity in vitro (in words) [2]: inhibited B1 or F10 kinase
O=C(O)c1cccc(/N=N/c2c(S(=O)(=O)O)ccc3c2C(=O)c2ccccc2C3=O)c1O [Compound 125908-P, 3-(9,10-dioxo-2-sulfo-anthracen-1-yl)diazenyl-2-hydroxy-benzoic acid]				23%	no apparent effect	53%	minimally inhibited		
O=C(O)C=Cc1c2ccc(=O)c(O)c-2oc2c(O)c(O)ccc12 [Compound 119911-V, 3-(4,5,6-trihydroxy-3-oxo-xanthen-9-yl)prop-2-enoic acid]	no toxic effects were observed	3 µM	≥ 87%	0%	no apparent effect	70%			
O=C(O)c1cc2c(cc1S(=O)(=O)O)C1C(C3C2C2(Cl)C(Cl)=C(Cl)C3(Cl)C2(Cl)Cl)C2(Cl)C(Cl)=C(Cl)C1(Cl)C2(Cl)Cl (stereo not drawn) [Compound 270718-R, 3-sulfo-2-naphthoic acid-bis(hexachlorocyclopentadiene) adduct]	no toxic effects were observed	2.5 µM	≥ 87%	12 ± 14%		86 ± 46%		inhibited the growth	Toxicity in mice ([1]; 200 mg/kg): No toxicity; Effect on growth of VSV (in words) [5]: essentially no effect; Effect on growth of VSV, FIG. 1 (in words) [5]: not the growth of VSV; Inhibition of growth of VSV (in words) [5]: slight; Activity under reduced-serum conditions relative to 10% serum (wild-type vaccinia virus): approximately four-fold; Effect on growth of wild-type vaccinia virus, FIG. 1 (in words) (wild-type vaccinia virus): inhibited the growth; Inhibition of growth of wild-type vaccinia virus (wild-type vaccinia virus): 90% and 99%; inhibition at 100 µM (wild-type vaccinia virus; read-out: Inhibition of growth of wild-type vaccinia virus, example of FIG. 1): 93%; inhibition at 100 µM (wild-type vaccinia virus; read-out: Inhibition of wild-type vaccinia virus): 84%; Effect on growth of human Ramos B cells (human Ramos B cells): no effect; Effect on growth of ts2 and ts25 mutant viruses (in words) [4]: reproducibly inhibited the growth; Effect on growth of ts2 and ts25 vaccinia virus, FIG. 1 (in words) [4]: inhibited the growth; Inhibition of growth of ts2 and ts25, single experiment (FIG. 1) ([4]; 100 µM): 99%; Inhibition of growth of vaccinia virus over 24 hours ([4]; 100 µM): 86-99%
CCc1c(O)c2c(c(O)c1C(C)=O)C(=O)c1c(cc(O)c(C(=O)O)c1C(=O)O)C2=O [Compound 170008-Y, 2-acetyl-7,8-bis(dihydroxymethylidene)-3-ethyl-9-hydroxy-anthracene-1,4,6,10-tetrone]		2.5 µM	≥ 87%	12%	no apparent effect	81%			
